For test [1], the system named is Leishmania donovani axenic amastigote parasites. The experiment in a line: Assay for Leishmania proliferation in vitro (axenic amastigotes, Cell TiterGlo). As to conditions: 48 h, 2 day incubation, read-out: L. donovani amastigotes EC50. In kind it is cell-based. Here is the method: Leishmania donovani axenic amastigote parasites are grown at 37° C., 5% CO2 in media made of RPMI 1640, 4 mM L-glutamine, 20% heat inactivated FBS, 100 units/ml of penicillin and 100 μg/ml of streptomycin, 23 μM Folic Acid, 100 μM Adenosine, 22 mM D-glucose, 25 mM MES. The pH of media is adjusted to 5.5 at 37° C. using HCl. 20 μL of media is first dispensed into 384 well plates and […] of the compounds of invention in DMSO are added to the plate wells. At the same time control compounds and DMSO are added to plates to serve as the positive and negative controls, respectively. 40 μL of parasite culture (9600 parasites) are then added to the plate wells. The plates are then placed into incubators. After 2 day incubation, 20 μL of Cell TiterGlo (Promega) is added to the plate wells. The luminescence signal of each well is measured using the Envision reader (Perkin Elmer). The percentage inhibition of 50%, EC50, is calculated for each of the compounds.
On the technique in general: Cellular ATP, detected with luciferase, serves as a proxy for viable cell number.

For test [2], the system named is L. donovani HU3 strain in mouse peritoneal macrophages. The experiment in a line: Proliferation of L. donovani in mouse peritoneal macrophages (SybrGreen, high-content imaging). In kind it is cell-based. As to conditions: Leishmania donovani, Peritoneal macrophage, 120 h; infected mouse peritoneal macrophages, 5 days; read-out: L. donavani Macrophage EC50. An excerpt:
The activity of a compound according to the present invention for inhibition of parasitemai can be assessed by the parasite proliferation assay. The assay measures the increase in the parasite number in the assayed plate well using a DNA intercalating dye, SYBR Green I® dye (INVITROGEN) to stain Leishmania cell nuclei. It is understood that the assays illustrate the invention without in any way limiting the scope of the invention.
L. donovani HU3 strain is propagated by infecting BALBc mice through tail vein injection with 10^7 Leishmania parasites. Infected mice are allowed to develop infection during 9-11 weeks post-infection. During this time, the parasites accumulate in the infected mouse spleens to large numbers, and the infected mice serve as the source of parasites for the in vitro measurement of compound efficacies. To assay a compound for anti-leishmanial activity, peritoneal macrophages isolated from non-infected BALBc mice are seeded into 384-well plates at density 2×10^4 macrophages per well in 25 mL of medium (RPMI1640, 10% fetal serum albumin, 10 mM HEPES, 1 mM sodium pyruvate, 1% Pen/Strep). Subsequently, the seeded plates are placed into an incubator set to maintain 37° C. temperature and atmosphere with 5% CO2. The next day, Leishmania parasites are isolated from the spleens of mice infected for 9-11 weeks and 4×10^5 isolated parasites in […] of the above media are added to each plate well. Plates are then returned into incubators and infection is allowed to proceed for 24 hours. After the infection of macrophages is completed, […] of compounds of the invention in the above medium, which also contains 5% DMSO, are added to plate wells containing infected macrophages. At the same time control compounds (miltefosine and amphotericin B) and DMSO are added to plates to serve as the positive and negative controls, respectively. After the compound addition, the plates are returned into incubator and cells infected with parasites are cultured for 5 days. At the end of cultivation, […] of 8% paraformaldehyde is added to plate wells and incubated for 15 min at room temperature. Following the incubation, the paraformaldehyde from plate wells is aspirated, and […] of PBS containing 0.2% Triton X-100 is added to wells. After 15 min incubation, the solution is aspirated from wells again, and replaced with SybrGreen Dye solution in PBS (1:125,000 dilution). Infected cells are imaged with Evotec Opera high-content microscope, and the number of parasites in well is determined by counting parasite nuclei visualized by staining with SybrGreen dye. The percentage inhibition of 50%, EC50, is calculated for each compound.
The inhibitory efficacy of the compounds of the invention against proliferation of L. donovani in mouse peritoneal macrophages is provided in Table I.

pEC50: −log10 of the molar value.

Broadly, the pEC50 is the EC50 on a negative log10 scale, so that one unit is a factor of ten. Regarding `Cc1cnc(C(=O)Nc2cnc3nc(-c4cc(NC(=O)c5ccco5)ccc4Cl)[nH]c3c2)s1` [Example 1, N-{2-[2-chloro-5-(furan-2-amido)phenyl]-1H-imidazo[4,5-b]pyridin-6-yl}-5-methyl-1,3-thiazole-2-carboxamide], the pEC50 was 6.89 in test [1] and 6.14 in test [2].
The like results for `CC(C)OC(=O)Nc1ccc(Cl)c(-c2nc3ncc(NC(=O)OC(C)C)cc3[nH]2)c1` [Example 4, propan-2-yl N-[2-(2-chloro-5-{[(propan-2-yloxy)carbonyl]amino}phenyl)-1H-imidazo[4,5-b]pyridin-6-yl]carbamate] were, in that order, 6.36 and 6.08.
The like results for `CN(C)c1cnc2nc(-c3cc(NC(=O)c4ccco4)ccc3Cl)[nH]c2c1` [Example 13, N-{4-chloro-3-[6-(dimethylamino)-1H-imidazo[4,5-b]pyridin-2-yl]phenyl}furan-2-carboxamide] were, in that order, 5.63 and 5.07.
The like results for `Cc1ccc(C(=O)Nc2ccc(Cl)c(-c3nc4ncc(NC(=O)OC(C)C)cc4[nH]3)c2)o1` [Example 17, propan-2-yl N-{2-[2-chloro-5-(5-methylfuran-2-amido)phenyl]-1H-imidazo[4,5-b]pyridin-6-yl}carbamate] were, in that order, 5.12 and 4.88.
As to `CC(C)(N)COC(=O)Nc1cnc2nc(-c3cc(NC(=O)c4ccco4)ccc3Cl)[nH]c2c1` [Example 23, 2-amino-2-methylpropyl N-{2-[2-chloro-5-(furan-2-amido)phenyl]-1H-imidazo[4,5-b]pyridin-6-yl}carbamate], the pEC50 in test [1] was 4.68; in test [2], 4.47.
The like results for `O=C(Nc1ccc(Cl)c(-c2nc3ncc(NCC4CCNCC4)cc3[nH]2)c1)c1ccco1` [Example 27, N-(4-chloro-3-{6-[(piperidin-4-ylmethyl)amino]-1H-imidazo[4,5-b]pyridin-2-yl}phenyl)furan-2-carboxamide] were, in that order, less than 4.60 and less than 4.30.
The like results for `CC(C)(C)OC(=O)N1CC[C@H](CC(=O)Nc2cnc3nc(-c4cc(NC(=O)c5ccco5)ccc4Cl)[nH]c3c2)C1` [Example 28] were, in that order, less than 4.60 and less than 4.30.
For `Cc1ccc(C(=O)Nc2ccc(Cl)c(-c3nc4ncc(N)cc4[nH]3)c2)o1` [Example 29, N-(3-{6-amino-1H-imidazo[4,5-b]pyridin-2-yl}-4-chlorophenyl)-5-methylfuran-2-carboxamide] the same measures were less than 4.60 and less than 4.30.
As for `CC(C)(N)CNc1cnc2nc(-c3cc(NC(=O)c4ccco4)ccc3Cl)[nH]c2c1` [Example 31, N-(3-{6-[(2-amino-2-methylpropyl)amino]-1H-imidazo[4,5-b]pyridin-2-yl}-4-chlorophenyl)furan-2-carboxamide], the results for the pEC50 in test [1] and in test [2] were less than 4.60 and less than 4.30, respectively.
As to `O=C(Nc1ccc(Cl)c(-c2nc3ncc(NC(=O)C4(C(F)(F)F)CCC4)cc3[nH]2)c1)c1ccco1` [Example 37, N-[4-chloro-3-(6-{[1-(trifluoromethyl)cyclobutane]amido}-1H-imidazo[4,5-b]pyridin-2-yl)phenyl]furan-2-carboxamide], the pEC50 in test [1] was 6.07; in test [2], 6.28.
The like results for `CN(C)CC(=O)Nc1cnc2nc(-c3cc(NC(=O)c4ccco4)ccc3Cl)[nH]c2c1` [Example 40, N-(4-chloro-3-{6-[2-(dimethylamino)acetamido]-1H-imidazo[4,5-b]pyridin-2-yl}phenyl)furan-2-carboxamide] were, in that order, less than 4.60 and 5.07.
Regarding `CN(C)/C=N/c1cnc2nc(-c3cc(NC(=O)c4ccco4)ccc3Cl)[nH]c2c1` [Example 50, N-(4-chloro-3-{6-[(E)-[(dimethylamino)methylidene]amino]-1H-imidazo[4,5-b]pyridin-2-yl}phenyl)furan-2-carboxamide], the results for the pEC50 in test [1] and in test [2] were 5.22 and 5.29, respectively.
Regarding `CN(C)S(=O)(=O)Nc1cnc2nc(-c3cc(NC(=O)c4ccco4)ccc3Cl)[nH]c2c1` [Example 51, N-(4-chloro-3-{6-[(dimethylsulfamoyl)amino]-1H-imidazo[4,5-b]pyridin-2-yl}phenyl)furan-2-carboxamide], the pEC50 was less than 4.60 in test [1] and 5.06 in test [2].
The like results for `CC(C)S(=O)(=O)Nc1cnc2nc(-c3cc(NC(=O)c4ccc(C#N)o4)ccc3Cl)[nH]c2c1` [Example 60, N-{4-chloro-3-[6-(propane-2-sulfonamido)-1H-imidazo[4,5-b]pyridin-2-yl]phenyl}-5-cyanofuran-2-carboxamide] were, in that order, 5.61 and 4.75.
On to `NC(=O)C1(C(=O)Nc2cnc3nc(-c4cc(NC(=O)c5ccco5)ccc4Cl)[nH]c3c2)CC1` [Example 64, 1-N-{2-[2-chloro-5-(furan-2-amido)phenyl]-1H-imidazo[4,5-b]pyridin-6-yl}cyclopropane-1,1-dicarboxamide], for which the results for the pEC50 in test [1] and in test [2] were 4.68 and less than 4.30, respectively.
The like results for `NCCCNc1cnc2nc(-c3cc(NC(=O)c4ccc(F)o4)ccc3Cl)[nH]c2c1` [Example 69, N-(3-{6-[(3-aminopropyl)amino]-1H-imidazo[4,5-b]pyridin-2-yl}-4-chlorophenyl)-5-fluorofuran-2-carboxamide] were, in that order, less than 4.60 and less than 4.30.
The like results for `O=CNc1cnc2nc(-c3cc(NC(=O)c4ccc(F)o4)ccc3Cl)[nH]c2c1` [Example 74, N-(4-chloro-3-{6-formamido-1H-imidazo[4,5-b]pyridin-2-yl}phenyl)-5-fluorofuran-2-carboxamide] were, in that order, 4.97 and less than 4.30.
The like results for `CC(C)OC(=O)Nc1cnc2nc(-c3cc(NC(=O)N4CCCC4)ccc3Cl)oc2c1` [Example 75, propan-2-yl N-(2-{2-chloro-5-[(pyrrolidin-1-yl)carbonylamino]phenyl}-[1,3]oxazolo[4,5-b]pyridin-6-yl)carbamate] were, in that order, 6.88 and 6.78.
Take `CC(C)OC(=O)Nc1cnc2nc(-c3cc(NC(=O)c4ccco4)ccc3Cl)oc2c1` [Example 76, propan-2-yl N-(2-{2-chloro-5-[(furan-2-yl)carbonylamino]phenyl}-[1,3]oxazolo[4,5-b]pyridin-6-yl)carbamate]: the values for the pEC50 in test [1] and in test [2] were 6.59 and 6.35, respectively.
Turning to `CC(C)S(=O)(=O)Nc1cnc2nc(-c3cccc(NC(=O)c4ccc(F)o4)c3)[nH]c2c1` [Example 77, 5-fluoro-N-{3-[6-(propane-2-sulfonamido)-1H-imidazo[4,5-b]pyridin-2-yl]phenyl}furan-2-carboxamide], the pEC50 was less than 4.60 in test [1] and 4.64 in test [2].

The values above are taken from patent publication US9186361B2, “Compounds and compositions for the treatment of parasitic diseases” (Novartis AG, priority 2013, dated 2015).
